Where two headings read alike, the source gives them in different places.
Test: Plasma concentration versus time of Compound I and metabolite Compound III in patients dosed QD or BID with Form B of Compound II plus fulvestrant
Format: in vivo, human
Conditions: human, plasma, oral, 650 mg; for concentration at 8 day: Day 8; for concentration at 15 day: Day 15; for concentration at 22 day: Day 22; for concentration at 0 h: Day 29, 0.0 h; for concentration at 1 h: Day 29, 1.0 h; for concentration at 2 h: Day 29, 2.0 h; for concentration at 3 h: Day 29, 3.0 h; for concentration at 4 h: Day 29, 4.0 h; for concentration at 6 h: Day 29, 6.0 h
Description: Patients were enrolled into 1 of 2 parallel, independently operating, dose-escalation dosing cohorts with Form B of Compound II administered continuously either once daily (QD) or twice daily (BID) with food with fixed-dose fulvestrant (intramuscularly every 14 days for the first three injections and then every 28 days). Pre- or perimenopausal patients also received goserelin for the duration of study treatment. A […] agonist was started at least 28 days before the first dose of Form B, and those patients who were taking another LHRH agonist were switched to goserelin on Day 1. Patients were split into […] cohorts providing once a day (QD) dosing of 200 mg, 300 mg, 400 mg, 500 mg, or 650 mg of Form B, or twice a day (BID) dosing of 100 mg, 150 mg, or 200 mg of Form B. The second dose in BID cohorts was not administered in the evening until at least 12 hours after the initial morning dose of Form B. The dosing cohorts for Form B of Compound II are provided in Table 1.
Blood samples were collected at the following time points relative to the morning dose of Form B at Day 1 and at Day 29: pre-dose (0 hour) and 1, 2, 3, 4, 6, 8, 10, 12 (prior to the evening dose in the BID cohorts), and 24 (prior to the next day's morning dose) hours after dosing. A 5-minute time window was allowed for samples collected between the predose and 3 hours after Form B dosing. A 15-minute window was allowed for samples collected between 4 to 12 hours after Form B dosing. A 1-hour window was allowed for the sample collected 24 hours after Form B dosing. Blood samples for Compound I PK trough levels were collected pre-dose at Day 8, Day 15, and Day 22 prior to the morning administration of Compound I. Plasma concentrations of Compound I and its metabolite, Compound III, were measured using validated methods.
Analysis of plasma concentration versus time data for calculation of standard pharmacokinetic (PK) parameters following oral administration was conducted using Phoenix WinNonlin version 6.3 using actual blood sampling times.

[1] = Cohort 5, 650 mg QD of Form B, read-out: Trough Compound I Concentration, Max
[2] = Cohort 5, 650 mg QD of Form B, read-out: Trough Compound I Concentration, Mean
[3] = Cohort 5, 650 mg QD of Form B, read-out: Trough Compound I Concentration, Median
[4] = Cohort 5, 650 mg QD of Form B, read-out: Trough Compound I Concentration, Min
[5] = Cohort 5, 650 mg QD of Form B, read-out: Compound I Concentration, Max
[6] = Cohort 5, 650 mg QD of Form B, read-out: Compound I Concentration, Mean
[7] = Cohort 5, 650 mg QD of Form B, read-out: Compound I Concentration, Median
[8] = Cohort 5, 650 mg QD of Form B, read-out: Compound I Concentration, Min

CC(C)N1CCN(c2ccc(Nc3ncc4cc5n(c4n3)C3(CCCCC3)CNC5=O)nc2)CC1 [Compound I, 2′-((5-(4-isopropylpiperazin-1-yl)pyridin-2-yl)amino)-7′,8′-dihydro-6′H-spiro[cyclohexane-1,9′-pyrazino[1′,2′:1,5]pyrrolo[2,3-d]pyrimidin]-6′-one]
concentration at 8 h (650 mg QD of Form B, Day 1, 8.0 h, Median, read-out: Compound I Concentration): 60.3 ng/mL
concentration at 10 h (650 mg QD of Form B, Day 1, 10.0 h, Mean, read-out: Compound I Concentration): 48.4 ng/mL
concentration at 10 h (650 mg QD of Form B, Day 1, 10.0 h, Median, read-out: Compound I Concentration): 47.9 ng/mL
concentration at 12 h (650 mg QD of Form B, Day 1, 12.0 h, Mean, read-out: Compound I Concentration): 37.4 ng/mL
concentration at 12 h (650 mg QD of Form B, Day 1, 12.0 h, Median, read-out: Compound I Concentration): 37.3 ng/mL
concentration at 24 h (650 mg QD of Form B, Day 1, […], Mean, read-out: Compound I Concentration): 17.1 ng/mL
concentration at 24 h (650 mg QD of Form B, Day 1, […], Median, read-out: Compound I Concentration): 16 ng/mL
concentration at 8 day [1]: 43.9 ng/mL
concentration at 8 day [2]: 28.9 ng/mL
concentration at 8 day [3]: 28.3 ng/mL
concentration at 8 day [4]: 17 ng/mL
concentration at 15 day [1]: 30.7 ng/mL
concentration at 15 day [2]: 25.7 ng/mL
concentration at 15 day [3]: 27.4 ng/mL
concentration at 15 day [4]: 19.1 ng/mL
concentration at 22 day [1]: 43.7 ng/mL
concentration at 22 day [2]: 30.3 ng/mL
concentration at 22 day [3]: 24 ng/mL
concentration at 22 day [4]: 23.3 ng/mL
concentration at 0 h [5]: 28.9 ng/mL
concentration at 0 h [6]: 20.9 ng/mL
concentration at 0 h [7]: 22.5 ng/mL
concentration at 0 h [8]: 11.4 ng/mL
concentration at 1 h [5]: 29.6 ng/mL
concentration at 1 h [6]: 20.9 ng/mL
concentration at 1 h [7]: 20.9 ng/mL
concentration at 1 h [8]: 12.1 ng/mL
concentration at 2 h [5]: 34.9 ng/mL
concentration at 2 h [6]: 25.9 ng/mL
concentration at 2 h [7]: 25.9 ng/mL
concentration at 2 h [8]: 16.8 ng/mL
concentration at 3 h [5]: 39.5 ng/mL
concentration at 3 h [6]: 28.4 ng/mL
concentration at 3 h [7]: 28.4 ng/mL
concentration at 3 h [8]: 17.2 ng/mL
concentration at 4 h [5]: 43.8 ng/mL
concentration at 4 h [6]: 33.1 ng/mL
concentration at 4 h [7]: 33.1 ng/mL
concentration at 4 h [8]: 22.3 ng/mL
concentration at 6 h [5]: 79.3 ng/mL
concentration at 6 h [6]: 58.8 ng/mL
concentration at 6 h [7]: 58.8 ng/mL
concentration at 6 h [8]: 38.2 ng/mL
concentration at 8 h (Cohort 5, 650 mg QD of Form B, Day 29, 8.0 h, read-out: Compound I Concentration, Max): 88.7 ng/mL
concentration at 8 h (Cohort 5, 650 mg QD of Form B, Day 29, 8.0 h, read-out: Compound I Concentration, Mean): 66 ng/mL
concentration at 8 h (Cohort 5, 650 mg QD of Form B, Day 29, 8.0 h, read-out: Compound I Concentration, Median): 66 ng/mL
concentration at 8 h (Cohort 5, 650 mg QD of Form B, Day 29, 8.0 h, read-out: Compound I Concentration, Min): 43.2 ng/mL
concentration at 10 h (Cohort 5, 650 mg QD of Form B, Day 29, 10.0 h, read-out: Compound I Concentration, Max): 78.2 ng/mL
concentration at 10 h (Cohort 5, 650 mg QD of Form B, Day 29, 10.0 h, read-out: Compound I Concentration, Mean): 58.1 ng/mL
concentration at 10 h (Cohort 5, 650 mg QD of Form B, Day 29, 10.0 h, read-out: Compound I Concentration, Median): 58.1 ng/mL
concentration at 10 h (Cohort 5, 650 mg QD of Form B, Day 29, 10.0 h, read-out: Compound I Concentration, Min): 37.9 ng/mL
concentration at 12 h (Cohort 5, 650 mg QD of Form B, Day 29, 12.0 h, read-out: Compound I Concentration, Max): 63.2 ng/mL
concentration at 12 h (Cohort 5, 650 mg QD of Form B, Day 29, 12.0 h, read-out: Compound I Concentration, Mean): 46.3 ng/mL
concentration at 12 h (Cohort 5, 650 mg QD of Form B, Day 29, 12.0 h, read-out: Compound I Concentration, Median): 46.3 ng/mL
concentration at 12 h (Cohort 5, 650 mg QD of Form B, Day 29, 12.0 h, read-out: Compound I Concentration, Min): 29.4 ng/mL
concentration at 24 h (Cohort 5, 650 mg QD of Form B, Day 29, […], read-out: Compound I Concentration, Max): 27.8 ng/mL
concentration at 24 h (Cohort 5, 650 mg QD of Form B, Day 29, […], read-out: Compound I Concentration, Mean): 24.3 ng/mL
concentration at 24 h (Cohort 5, 650 mg QD of Form B, Day 29, […], read-out: Compound I Concentration, Median): 24.3 ng/mL
concentration at 24 h (Cohort 5, 650 mg QD of Form B, Day 29, […], read-out: Compound I Concentration, Min): 20.7 ng/mL

From patent US11357779B2 (G1 Therapeutics, Inc., priority 2018, dated 2022)
